Results on 22 compounds are retold here after US20240246992A1, “MACROCYCLIC LRRK2 KINASE INHIBITORS” (LES LABORATOIRES SERVIER, priority 2021, published 2024).

Molecules are shown by their SMILES. Bounds are passed on as bounds.

Chain of human recombinant LRRK2 protein (Q5S007 whole entry): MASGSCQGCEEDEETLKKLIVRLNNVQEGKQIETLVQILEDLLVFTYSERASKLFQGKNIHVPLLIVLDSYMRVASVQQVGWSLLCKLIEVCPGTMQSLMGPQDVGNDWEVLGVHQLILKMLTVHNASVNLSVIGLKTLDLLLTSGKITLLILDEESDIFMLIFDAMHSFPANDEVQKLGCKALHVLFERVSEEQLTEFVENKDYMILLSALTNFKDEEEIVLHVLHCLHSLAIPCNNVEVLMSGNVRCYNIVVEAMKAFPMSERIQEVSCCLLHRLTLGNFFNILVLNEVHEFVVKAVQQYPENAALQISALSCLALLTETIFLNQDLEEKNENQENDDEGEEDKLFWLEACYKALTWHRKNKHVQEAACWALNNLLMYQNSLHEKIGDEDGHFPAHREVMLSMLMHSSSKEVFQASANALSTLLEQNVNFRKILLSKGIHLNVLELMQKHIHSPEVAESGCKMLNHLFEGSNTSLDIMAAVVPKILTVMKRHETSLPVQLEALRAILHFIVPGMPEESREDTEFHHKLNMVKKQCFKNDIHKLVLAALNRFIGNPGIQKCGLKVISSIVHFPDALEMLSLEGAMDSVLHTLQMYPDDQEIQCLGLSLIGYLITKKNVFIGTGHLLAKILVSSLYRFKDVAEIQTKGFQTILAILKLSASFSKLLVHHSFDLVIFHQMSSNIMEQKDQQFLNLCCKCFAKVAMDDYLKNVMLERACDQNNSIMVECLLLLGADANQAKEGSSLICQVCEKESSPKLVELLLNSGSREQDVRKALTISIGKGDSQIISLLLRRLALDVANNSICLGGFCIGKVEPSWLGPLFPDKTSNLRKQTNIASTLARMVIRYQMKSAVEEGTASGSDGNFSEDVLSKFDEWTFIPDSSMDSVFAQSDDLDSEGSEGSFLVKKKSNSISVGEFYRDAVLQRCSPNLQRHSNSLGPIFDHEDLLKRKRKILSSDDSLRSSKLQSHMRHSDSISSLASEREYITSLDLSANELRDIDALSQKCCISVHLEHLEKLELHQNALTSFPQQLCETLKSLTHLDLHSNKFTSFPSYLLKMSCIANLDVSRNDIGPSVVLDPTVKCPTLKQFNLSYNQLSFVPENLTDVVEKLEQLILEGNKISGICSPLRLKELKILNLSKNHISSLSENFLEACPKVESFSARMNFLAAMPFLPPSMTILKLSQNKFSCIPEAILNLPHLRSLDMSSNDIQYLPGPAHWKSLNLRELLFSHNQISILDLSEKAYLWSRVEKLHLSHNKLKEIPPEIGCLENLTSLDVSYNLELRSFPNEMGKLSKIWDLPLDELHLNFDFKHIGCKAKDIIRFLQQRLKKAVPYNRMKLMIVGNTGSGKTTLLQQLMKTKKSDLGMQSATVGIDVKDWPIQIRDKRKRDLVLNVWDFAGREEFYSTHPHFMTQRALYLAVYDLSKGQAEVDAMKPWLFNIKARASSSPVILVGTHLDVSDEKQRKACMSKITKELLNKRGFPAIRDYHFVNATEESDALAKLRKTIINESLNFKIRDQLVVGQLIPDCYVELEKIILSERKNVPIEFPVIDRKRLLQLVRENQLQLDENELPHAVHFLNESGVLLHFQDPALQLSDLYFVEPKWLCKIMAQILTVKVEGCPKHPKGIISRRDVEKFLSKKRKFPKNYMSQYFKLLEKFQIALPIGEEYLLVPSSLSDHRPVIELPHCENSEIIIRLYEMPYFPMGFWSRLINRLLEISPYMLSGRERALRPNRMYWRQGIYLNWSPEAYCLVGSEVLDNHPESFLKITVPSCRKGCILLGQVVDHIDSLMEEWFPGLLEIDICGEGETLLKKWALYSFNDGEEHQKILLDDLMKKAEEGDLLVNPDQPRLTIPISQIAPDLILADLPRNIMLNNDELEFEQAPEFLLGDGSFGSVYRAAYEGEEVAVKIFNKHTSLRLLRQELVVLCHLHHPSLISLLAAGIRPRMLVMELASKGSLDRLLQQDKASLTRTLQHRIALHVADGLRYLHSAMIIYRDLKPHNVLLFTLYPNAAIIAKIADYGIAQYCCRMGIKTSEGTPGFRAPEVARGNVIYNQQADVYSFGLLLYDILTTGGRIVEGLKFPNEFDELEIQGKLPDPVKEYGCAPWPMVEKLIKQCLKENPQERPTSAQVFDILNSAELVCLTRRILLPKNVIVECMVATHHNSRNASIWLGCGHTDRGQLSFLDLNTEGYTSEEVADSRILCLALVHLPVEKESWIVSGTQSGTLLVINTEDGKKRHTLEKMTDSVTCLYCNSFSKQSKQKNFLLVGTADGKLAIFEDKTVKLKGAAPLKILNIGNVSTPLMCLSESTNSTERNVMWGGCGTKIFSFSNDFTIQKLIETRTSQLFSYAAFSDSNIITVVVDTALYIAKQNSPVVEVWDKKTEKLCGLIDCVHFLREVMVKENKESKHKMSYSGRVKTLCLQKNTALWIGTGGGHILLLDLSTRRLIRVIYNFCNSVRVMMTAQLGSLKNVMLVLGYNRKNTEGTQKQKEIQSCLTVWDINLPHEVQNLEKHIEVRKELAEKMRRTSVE

The target in this assay is human recombinant LRRK2 protein (Homo sapiens, UniProt Q5S007). Description: LRRK2 kinase activity assay (ADP-Glo, LRRKtide peptide). The class given is biochemical. The settings on record: human recombinant LRRK2 wt, LRRKtide peptide and ATP, 1 h at 37° C. The procedure, abridged:
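Human recombinant LRRK2 reacted with LRRKtide peptide and ATP for 1 h at 37 °C in the presence of compound. ADP formed measured by ADP-Glo luminescence; IC50 fitted from 10 concentrations run in duplicate.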
As usually defined, the IC50 is the concentration at which inhibition is half-maximal. Consider `C[C@H]1COc2ccc3[nH]nc(c3c2)-c2cc(C#N)n(c2)CCOCCO1` [Example 85, (12S)-12-methyl-8,11,14-trioxa-5,19,20-triazatetracyclo[13.5.2.1^2,5.0^18,21] tricosa-1(20),2(23),3,15(22),16,18(21)-hexaene-4-carbonitrile], for which the IC50 is less than 10 nM.

For the compound `C[C@@H]1COc2ccc3[nH]nc(c3c2)-c2cc(C#N)n(c2)CCOCCO1` [Example 86, (12R)-12-methyl-8,11,14-trioxa-5,19,20-triazatetracyclo [13.5.2.1^2,5.0^18,21]tricosa-1(20),2(23),3,15(22),16,18(21)-hexaene-4-carbonitrile], the IC50 is less than 10 nM.

Turning to `C[C@@H]1COCCO[C@@H](C)COc2ccc3[nH]nc(c3c2)-c2cnn1c2` [Example 87, (6R,12S)-6,12-dimethyl-8,11,14-trioxa-4,5,19,20-tetraazatetracyclo[13.5.2.1^2,5.0^18,21]tricosa-1(20),2(23),3,15(22),16,18(21)-hexaene], the IC50 is less than 10 nM.

For the compound `C[C@@H]1COCCOCCn2cc(cn2)-c2n[nH]c3c(F)cc(cc23)O1` [Example 88, (13R)-17-fluoro-13-methyl-8,11,14-trioxa-4,5,19,20-tetraazatetracyclo [13.5.2.1^2,5.0^18,21]tricosa-1(20),2(23),3,15(22),16,18(21)-hexaene], the IC50 was less than 10 nM.

On to `C[C@H]1COc2ccc3[nH]nc(c3c2)-c2cnn(c2)[C@@H](C)COCCO1` [Example 89, (6S,12S)-6,12-dimethyl-8,11,14-trioxa-4,5,19,20-tetraazatetracyclo [13.5.2.1^2,5.0^18,21]tricosa-1(20),2(23),3,15(22),16,18(21)-hexaene], for which the IC50 was less than 10 nM.

As for `C[C@@H]1CCOCCCn2ncc(n2)-c2n[nH]c3ccc(cc23)O1` [Example 90, (12R)-12-methyl-9,13-dioxa-4,5,18,19,22-pentaazatetracyclo[12.5.2.1^2,5.0^17,20]docosa-1(19),2(22),3,14(21),15,17(20)-hexaene], the IC50 is less than 10 nM.

With `CN1CCOCCOc2cc(cc(N3CCOCC3)c2)-c2n[nH]c3ccc(cc23)C1` [Example 91, 13-methyl-4-(morpholin-4-yl)-7,10-dioxa-13,19,20-triazatetracyclo [13.5.2.1^2,6.0^18,21]tricosa-1(20),2,4,6(23),15,17,21-heptaene], the IC50 is less than 100 nM.

Regarding `C[C@H]1CCOCCCn2ncc(n2)-c2n[nH]c3ccc(cc23)O1` [Example 92, (12S)-12-methyl-9,13-dioxa-4,5,18,19,22-pentaazatetracyclo[12.5.2.1^2,5.0^17,20]docosa-1(19),2(22),3,14(21),15,17(20)-hexaene], the half-inhibitory concentration (IC50) was less than 10 nM.

With `C[C@@H]1COCCOC[C@H](C)n2cc(cn2)-c2n[nH]c3ccc(cc23)O1` [Example 93, (6S,13R)-6,13-dimethyl-8,11,14-trioxa-4,5,19,20-tetraazatetracyclo[13.5.2.1^2,5.0^18,21]tricosa-1(20),2(23),3,15(22),16,18(21)-hexaene], the concentration for half-maximal inhibition (IC50) is less than 100 nM.

Regarding `C[C@@H]1CCOCC[C@@H](C)n2ncc(n2)-c2n[nH]c3ccc(cc23)O1` [Example 94, (6R,12R)-6,12-dimethyl-9,13-dioxa-4,5,18,19,22-pentaazatetracyclo[12.5.2.1^2,5.0^17,20]docosa-1(19),2(22),3,14(21),15,17(20)-hexaene], the IC50 is less than 10 nM.

For `COC1COCCOC[C@@H](C)Oc2ccc3[nH]nc(c3c2)-c2cnn1c2` (stereo partly drawn) [Example 95, (13R)-6-methoxy-13-methyl-8,11,14-trioxa-4,5,19,20-tetraazatetracyclo [13.5.2.1^2,5.0^18,21]tricosa-1(20),2(23),3,15(22),16,18(21)-hexaene], the IC50 is less than 100 nM.

`c1nn2cc1-c1n[nH]c3cnc(cc13)OCCOCCOCC2` [Example 96, 8,11,14-trioxa-4,5,16,19,20-pentaazatetracyclo[13.5.2.1^2,5.0^18,21]tricosa-1(20),2(23),3,15(22),16,18(21)-hexaene]: the IC50 is less than 100 nM.

`C[C@@H]1CCO[C@@H](C)CCn2cc(cn2)-c2n[nH]c3ccc(cc23)O1` [Example 97, (8S,12R)-8,12-dimethyl-9,13-dioxa-4,5,18,19-tetraaza tetracyclo[12.5.2.1^2,5.0^17,20]docosa-1(19),2(22),3,14(21),15,17(20)-hexaene]: the IC50 is less than 10 nM.

Turning to `C[C@@H]1CCn2cc(cn2)-c2n[nH]c3ccc(cc23)O[C@H](C)CCO1` [Example 98, (8R,12R)-8,12-dimethyl-9,13-dioxa-4,5,18,19-tetraazatetracyclo[12.5.2.1^2,5.0^17,20]docosa-1(19),2(22),3,14(21),15,17(20)-hexaene], the 50% inhibitory concentration (IC50) was less than 10 nM.

As for `C[C@@H]1OCCOCCn2cc(cn2)-c2n[nH]c3ccc(cc23)O[C@@H]1C` [Example 99, (12S,13R)-12,13-dimethyl-8,11,14-trioxa-4,5,19,20-tetraazatetracyclo[13.5.2.1^2,5.0^18,21]tricosa-1(20),2(23),3,15(22),16,18(21)-hexaene], the IC50 is less than 10 nM.

For `C[C@@H]1Oc2ccc3[nH]nc(c3c2)-c2cnn(c2)CCOCCO[C@@H]1C` [Example 100, (12R,13S)-12,13-dimethyl-8,11,14-trioxa-4,5,19,20-tetraazatetra cyclo[13.5.2.1^2,5.0^18,21]tricosa-1(20),2(23),3,15(22),16,18(21)-hexaene], the 50% inhibitory concentration (IC50) was less than 100 nM.

Consider `C[C@H]1COCCOC[C@H](C)n2cc(cn2)-c2n[nH]c3ccc(cc23)O1` [Example 101, (6S,13S)-6,13-dimethyl-8,11,14-trioxa-4,5,19,20-tetraazatetracyclo[13.5.2.1^2,5.0^18,21]tricosa-1(20),2(23),3,15(22),16,18(21)-hexaene], for which the IC50 was less than 10 nM.

With `c1cc2[nH]nc3c2cc1OCCCCOCCn1cc-3cn1` [Example 102, 8,13-dioxa-4,5,18,19-tetraazatetracyclo[12.5.2.1^2,5.0^17,20]docosa-1(19),2(22),3,14(21),15,17(20)-hexaene], the IC50 was less than 10 nM.

On to `C[C@@H]1CCOCC[C@H](C)n2ncc(n2)-c2n[nH]c3ccc(cc23)O1` [Example 103, (6S,12R)-6,12-dimethyl-9,13-dioxa-4,5,18,19,22-pentaazatetracyclo[12.5.2.1^2,5.0^17,20]docosa-1(19),2(22),3,14(21),15,17(20)-hexaene], for which the IC50 was less than 10 nM.

For the compound `c1cc2[nH]nc3c2cc1OCCOCCCCn1cc-3cn1` [Example 104, 10,13-dioxa-4,5,18,19-tetraazatetracyclo[12.5.2.1^2,5.0^17,20]docosa-1(19),2(22),3,14(21),15,17(20)-hexaene], the IC50 was less than 10 nM.

For the compound `[2H]C1([2H])OCCn2cc(cn2)-c2n[nH]c3ccc(cc23)OC[C@H](C)OC1([2H])[2H]` [Example 107, (12S)-12-methyl(9,9,10,10-^2H4)-8,11,14-trioxa-4,5,19,20-tetraazatetracyclo [13.5.2.1^2,5.0^18,21]tricosa-1(20),2(23),3,15,17,21-hexaene], the IC50 is less than 10 nM.

In the case of `c1cc2[nH]nc3c2cc1OCCCCCOCCn1cc-3cn1` [Example 108, 8,14-dioxa-4,5,19,20-tetraazatetracyclo[13.5.2.1^2,5.0^18,21]tricosa-1(20),2(23), 3,15(22),16,18(21)-hexaene], the IC50 is less than 10 nM.
